Columns and labels:
Assay type in all cases: in vivo
[1] = test system: patients with sebaceous cyst; assay: Treatment of sebaceous cyst
Procedure: The compound of the disclosure (e.g., dexmecamylamine substantially free of exo-R-mecamylamine) is administered to patients with sebaceous cyst. […] In some embodiments, the subject produces sebum in an amount of 100 μg/cm^2 and above (e.g., 125, 135, 150, 175, 200 μg/cm^2 or higher).

[2] = test system: patients with hidradenitis suppurativa; assay: Treatment of hidradenitis suppurativa
Procedure: The compound of the disclosure (e.g., dexmecamylamine substantially free of exo-R-mecamylamine) is administered to patients with hidradenitis suppurativa. […] In some embodiments, the subject produces sebum in an amount of 100 μg/cm^2 and above (e.g., 125, 135, 150, 175, 200 μg/cm^2 or higher). In particular, 4 mg of dexmecamylamine hydrochloride is administered orally twice a day to a subject with hidradenitis suppurativa. Efficacy is measured by a change in pain, as measured using a 10-point numerical rating scale, 1 through 10, with 10 being the worst, from baseline to week 12; a change in quality of life using Dermatology Life Quality Index (DLQI) from baseline to week 12; a change in clinical status using the Hurley Staging from baseline to week 12; a change in clinical status using the International Hidradenitis Suppurative Severity Score System (IHS4) from baseline to week 12; a change in clinical status using the Hidradenitis Suppurative Clinical Response (HiSCR) from baseline to week 12; a change in clinical status using the Hidradenitis Suppurative Physician Global Assessment (HS-PGA) from baseline to week 12; a change in clinical status using the Hidradenitis Suppurative Area and Severity Index-Revised (HASI-R) from baseline to week 12; and/or a change in the absolute number of abscesses and inflammatory nodules.

[3] = test system: patients with acne; assay: Treatment of acne
Procedure: The compound of the disclosure (e.g., dexmecamylamine substantially free of exo-R-mecamylamine or pharmaceutically acceptable salt thereof) is administered to patients with acne. […] In some embodiments, the compound is dexmecamylamine substantially free of exo-R-mecamylamine, or a pharmaceutically acceptable salt thereof. In some embodiments, the subject produces sebum in an amount of 100 μg/cm^2 and above (e.g., 125, 135, 150, 175, 200 μg/cm^2 or higher). In particular, 4 mg of dexmecamylamine hydrochloride is administered orally twice a day to a subject. Subjects have oily skin (>100 μg/cm^2) as measured on three locations of the face by a Sebumeter® grease spot photometry device and has facial acne vulgaris (including the nose). Efficacy is determined by a comparison of sebum as an absolute change from baseline at 12 weeks. Other measures of efficacy include the absolute change from baseline in inflammatory and non-inflammatory lesion counts at 8 weeks and the percent change from baseline in lesion counts (inflammatory and noninflammatory) at weeks 8 and 12. […] The assessment may include the quantity of lesions, size of lesions, intensity of inflammation, and location of lesions to consider the quality and quantity of lesions.

[4] = test system: patients with enlarged pores; assay: Treatment of enlarged pores
Procedure: The compound of the disclosure (e.g., dexmecamylamine substantially free of exo-R-mecamylamine) is administered to patients with enlarged pores. […] In some embodiments, the compound is dexmecamylamine substantially free of exo-R-mecamylamine, or a pharmaceutically acceptable salt thereof. In some embodiments, the subject produces sebum in an amount of 100 μg/cm^2 and above (e.g., 125, 135, 150, 175, 200 μg/cm^2 or higher).

[5] = test system: patients with seborrhea; assay: Treatment of seborrhea
Procedure: The compound of the disclosure (e.g., dexmecamylamine substantially free of exo-R-mecamylamine) is administered to patients with seborrhea. […] In some embodiments, the subject produces sebum in an amount of 100 μg/cm^2 and above (e.g., 125, 135, 150, 175, 200 μg/cm^2 or higher).

[6] = test system: patients with seborrheic dermatitis; assay: Treatment of seborrheic dermatitis
Procedure: The compound of the disclosure (e.g., dexmecamylamine substantially free of exo-R-mecamylamine) is administered to patients with seborrheic dermatitis. […] In some embodiments, the subject produces sebum in an amount of 100 μg/cm^2 and above (e.g., 125, 135, 150, 175, 200 μg/cm^2 or higher).

[7] = test system: patients with oily skin; assay: Treatment of oily skin
Procedure: The compound of the disclosure (e.g., dexmecamylamine substantially free of exo-R-mecamylamine) is administered to patients with oily skin. […] In some embodiments, the subject produces sebum in an amount of 100 μg/cm^2 and above (e.g., 125, 135, 150, 175, 200 μg/cm^2 or higher).

[8] = test system: patients with sebaceous adenoma; assay: Treatment of sebaceous adenoma
Procedure: The compound of the disclosure (e.g., dexmecamylamine substantially free of exo-R-mecamylamine) is administered to patients with sebaceous adenoma. […] In some embodiments, the subject produces sebum in an amount of 100 μg/cm^2 and above (e.g., 125, 135, 150, 175, 200 μg/cm^2 or higher).

[9] = test system: patients with wrinkles; assay: Treatment of wrinkles
Procedure: The compound of the disclosure (e.g., dexmecamylamine substantially free of exo-R-mecamylamine) is administered to patients with wrinkles. […] In some embodiments, the subject produces sebum in an amount of 100 μg/cm^2 and above (e.g., 125, 135, 150, 175, 200 μg/cm^2 or higher).

[10] = test system: patients with sebaceous carcinoma; assay: Treatment of sebaceous carcinoma
Procedure: The compound of the disclosure (e.g., dexmecamylamine substantially free of exo-R-mecamylamine) is administered to patients with sebaceous carcinoma. […] In some embodiments, the subject produces sebum in an amount of 100 μg/cm^2 and above (e.g., 125, 135, 150, 175, 200 μg/cm^2 or higher).

[11] = test system: patients with sebaceous hyperplasia; assay: Treatment of sebaceous hyperplasia
Procedure: The compound of the disclosure (e.g., dexmecamylamine substantially free of exo-R-mecamylamine) is administered to patients with sebaceous hyperplasia. […] In some embodiments, the subject produces sebum in an amount of 100 μg/cm^2 and above (e.g., 125, 135, 150, 175, 200 μg/cm^2 or higher).

[12] = test system: human subjects with hyperhidrosis and oily skin; assay: Phase II clinical study, facial sebum production; conditions: for Average response category at 2 weeks: change in percent of average facial sebum quantity at end of 2-week treatment vs baseline; for Average response category at 4 weeks: change in percent of average facial sebum quantity at end of 4-week treatment vs baseline; for Responders (%): subjects with 20% or greater reduction in sebum quantity following treatment
Text: Acne vulgaris is a dermatological condition characterized by increased sebum production, which is driven, in part, by cholinergic signaling within the sympathetic nervous system. Activation of nicotinic receptors on human sebaceous glands is known to increase sebum production and secretion. Dexmecamylamine acts on nicotinic acetylcholine receptors to reduce sympathetic tone through the selective inhibition of presynaptic nicotinic receptors in the sympathetic ganglia. In order to determine the therapeutic efficacy of dexmecamylamine in the treatment of acne and related conditions, the inventors leveraged a Phase II clinical study in 15 human subjects with hyperhidrosis and oily skin (i.e., sebum production of 100 μg/cm^2 or greater (e.g., 125, 135, 150, 175, 200 μg/cm^2 or higher)) that were treated with dexmecamylamine hydrochloride. […] [table]

With `CN[C@@]1(C)[C@@H]2CC[C@@H](C2)C1(C)C` [dexmecamylamine] the “symptoms, sebaceous cyst” value [1] was “improved symptoms”, the “symptoms, hidradenitis suppurativa” value [2] was “improved symptoms” and the “symptoms of acne (whiteheads, blackheads, papules, pimples, nodules, cysts)” value [3] was “improved symptoms”. For the same compound, the “symptoms, enlarged pores” value [4] was “improved symptoms”, the “symptoms, seborrhea” value [5] was “improved symptoms” and the “symptoms, seborrheic dermatitis” value [6] was “improved symptoms”. The “symptoms, oil production by the skin” value [7] was “improved symptoms”, the “symptoms, sebaceous adenoma” value [8] was “improved symptoms” and the “symptoms, wrinkles” value [9] was “improved symptoms”. For the same compound, the “symptoms, sebaceous carcinoma” value [10] was “improved symptoms”, the “symptoms, sebaceous hyperplasia” value [11] was “improved symptoms” and the “Average response category at 2 weeks” value ([12]; 2 mg BID) was “Low (Reduction in sebum production of less than 20%.)”. For the same compound, the “Average response category at 4 weeks” value ([12]; 2 mg BID) was “Medium^†† (Reduction in sebum production between 20% and 35%.)”, the “Responders (%)” value ([12]; 2 mg BID) was 80% and the facial sebum production ([12]; 2 mg or 4 mg BID, four weeks of treatment) was “reduction in facial sebum production”. For the same compound, the “Average response category at 2 weeks” value ([12]; 4 mg BID) was “Low (Reduction in sebum production of less than 20%.)”, the “Average response category at 4 weeks” value ([12]; 4 mg BID) was “High^††† (Reduction in sebum production of greater than 35%.)” and the “Responders (%)” value ([12]; 4 mg BID) was 100%.
